Source: ChEMBL document CHEMBL4033717, “Synthesis and anticancer activity of novel aza-artemisinin derivatives” (Bioorg Med Chem, 2017)

Tests used:
CCRF-CEM = assay: Anti-proliferative activity against human CEM cells after 4 days by coulter counting method; type: functional, cell-based; conditions: 96 h
HMEC-1 = assay: Anti-proliferative activity against HMEC1 cells after 3 days by coulter counting method; type: cell-based; conditions: Homo sapiens, HMEC-1, 72 h
HeLa = assay: Anti-proliferative activity against human HeLa cells after 3 days by coulter counting method; type: functional, cell-based; conditions: 72 h
[1] = Selectivity ratio of IC50 for HMEC1 cells to IC50 for human CEM cells

| SMILES | IC50 (CCRF-CEM) [µM] | IC50 (HMEC-1) [µM] | IC50 (HeLa) [µM] | Ratio IC50 [1] |
| --- | --- | --- | --- | --- |
| C[C@@H]1CC[C@H]2[C@@H](C)C(=O)N[C@@H]3O[C@@]4(C)CC[C@@H]1[C@]32OO4 | 150 | > 250 | 147 | – |
| C[C@@H]1CC[C@H]2[C@@H](C)C(OCCn3nnc4c3CCc3ccccc3-4)O[C@@H]3O[C@@]4(C)CC[C@@H]1[C@]32OO4 (stereo partly drawn) | 157 | > 250 | > 250 | – |
| C[C@H]1[C@H](OC(=O)C2CCc3c(nnn3CCc3c[nH]c4ccccc34)C2)O[C@@H]2O[C@@]3(C)CC[C@H]4[C@H](C)CC[C@@H]1[C@@]24OO3 (stereo partly drawn) | 3.9 | 40 | 12 | – |
| COc1cc(-n2cc(CN3C(=O)[C@H](C)[C@@H]4CC[C@@H](C)[C@@H]5CC[C@@]6(C)OO[C@]54[C@H]3O6)nn2)cc(OC)c1OC | 17 | 155 | 19 | 8 - 50 |
| C[C@@H]1CC[C@H]2[C@@H](C)C(OCCn3nnc4c3C[C@@H]3CC[C@@H]5[C@H](CC[C@]6(C)[C@@H](O)CC[C@@H]56)[C@@]3(C)C4)O[C@@H]3O[C@@]4(C)CC[C@@H]1[C@]32OO4 (stereo partly drawn) | 8.9 | 28 | 16 | – |
| C[C@@H]1CC[C@H]2[C@@H](C)C(=O)N(Cc3cn(C4OC(COCc5ccccc5)[C@H](OCc5ccccc5)[C@@H]4OCc4ccccc4)nn3)[C@@H]3O[C@@]4(C)CC[C@@H]1[C@@]23OO4 (stereo partly drawn) | > 250 | > 250 | ≥ 250 | – |
| C[C@@H]1CC[C@H]2[C@@H](C)C(OCCn3nncc3-c3ccc(Br)c(Br)c3)O[C@@H]3O[C@@]4(C)CC[C@@H]1[C@]32OO4 (stereo partly drawn) | 10 | 26 | 11 | – |
| C[C@@H]1CC[C@H]2[C@@H](C)C(=O)N(Cc3cn(C4CC(OC(=O)c5ccc(Cl)cc5)C(COC(=O)c5ccc(Cl)cc5)O4)nn3)[C@@H]3O[C@@]4(C)CC[C@@H]1[C@@]23OO4 (stereo partly drawn) | 2.6 | 24 | 6.1 | – |
| C[C@H]1[C@H](OC(=O)C2CCc3c(nnn3Cc3ccc4c(c3)OCO4)C2)O[C@@H]2O[C@@]3(C)CC[C@H]4[C@H](C)CC[C@@H]1[C@@]24OO3 (stereo partly drawn) | 2.8 | 35 | 11 | – |
| CC(C)c1cccc(-n2cc(CN3C(=O)[C@H](C)[C@@H]4CC[C@@H](C)[C@@H]5CC[C@@]6(C)OO[C@]54[C@H]3O6)nn2)c1 | 0.92 | 30 | 1.2 | 30 |
| C[C@@H]1CC[C@H]2[C@@H](C)C(OCCn3nnc4c3CCN(Cc3ccccc3)C4)O[C@@H]3O[C@@]4(C)CC[C@@H]1[C@]32OO4 (stereo partly drawn) | 20 | 30 | 19 | – |
| COc1cc2c(cc1OC)-c1nnn(CCOC3O[C@@H]4O[C@@]5(C)CC[C@H]6[C@H](C)CC[C@@H]([C@H]3C)[C@@]46OO5)c1CC2 (stereo partly drawn) | 30 | 150 | 36 | – |
| C=C(C)[C@@H]1CC[C@]2(C(=O)O)CC[C@]3(C)[C@H](CC[C@@H]4[C@@]5(C)Cc6nnn(CCOC7O[C@@H]8O[C@@]9(C)CC[C@H]%10[C@H](C)CC[C@@H]([C@H]7C)[C@@]8%10OO9)c6C(C)(C)[C@@H]5CC[C@]43C)[C@@H]12 (stereo partly drawn) | 5 | 121 | 24 | – |
| C[C@@H]1CC[C@H]2[C@@H](C)C(=O)N(Cc3cn(-c4ccccc4)nn3)[C@@H]3O[C@@]4(C)CC[C@@H]1[C@@]23OO4 | 5.1 | > 250 | 36 | 8 - 50 |
| C[C@@H]1CC[C@H]2[C@@H](C)C(OCCn3nnc4c3CCc3ccc([N+](=O)[O-])cc3-4)O[C@@H]3O[C@@]4(C)CC[C@@H]1[C@]32OO4 (stereo partly drawn) | 95 | 160 | 175 | – |
| C[C@@H]1CC[C@H]2[C@@H](C)C(OCCn3nncc3-c3cccc4ccccc34)O[C@@H]3O[C@@]4(C)CC[C@@H]1[C@]32OO4 (stereo partly drawn) | 11 | 24 | 12 | – |
| COC(=O)Cn1cc(CN2C(=O)[C@H](C)[C@@H]3CC[C@@H](C)[C@@H]4CC[C@@]5(C)OO[C@]43[C@H]2O5)nn1 | ≥ 250 | > 250 | > 250 | – |
| C#CCN1C(=O)[C@H](C)[C@@H]2CC[C@@H](C)[C@@H]3CC[C@@]4(C)OO[C@]32[C@H]1O4 | 104 | 241 | 98 | – |
| C[C@@H]1CC[C@H]2[C@@H](C)C(OCCn3nnc4c3-c3ccccc3CC4)O[C@@H]3O[C@@]4(C)CC[C@@H]1[C@]32OO4 (stereo partly drawn) | 21 | 35 | 20 | – |
| C[C@@H]1CC[C@H]2[C@@H](C)C(=O)N(Cc3cn(-c4ccc(C#N)cc4)nn3)[C@@H]3O[C@@]4(C)CC[C@@H]1[C@@]23OO4 | 18 | 26 | 36 | – |
| C[C@@H]1CC[C@H]2[C@@H](C)C(OCCn3nncc3-c3ccccc3)O[C@@H]3O[C@@]4(C)CC[C@@H]1[C@]32OO4 (stereo partly drawn) | 25 | 62 | 37 | – |
| COc1cc(Cn2nnc3c2CCC(C(=O)O[C@@H]2O[C@@H]4O[C@@]5(C)CC[C@H]6[C@H](C)CC[C@@H]([C@H]2C)[C@@]46OO5)C3)cc(OC)c1OC (stereo partly drawn) | 4.3 | 40 | 21 | – |
| COc1ccc2c(c1)-c1nnn(CCOC3O[C@@H]4O[C@@]5(C)CC[C@H]6[C@H](C)CC[C@@H]([C@H]3C)[C@@]46OO5)c1CC2 (stereo partly drawn) | 128 | 105 | 143 | – |
| COc1cc(-c2cnnn2CCOC2O[C@@H]3O[C@@]4(C)CC[C@H]5[C@H](C)CC[C@@H]([C@H]2C)[C@@]35OO4)ccc1O (stereo partly drawn) | 39 | 62 | 23 | – |
| Cc1ccc(Cn2nnc3c2CCC(C(=O)O[C@@H]2O[C@@H]4O[C@@]5(C)CC[C@H]6[C@H](C)CC[C@@H]([C@H]2C)[C@@]46OO5)C3)cc1 (stereo partly drawn) | 2.7 | 34 | 11 | – |
